Data from patent publication US5387602A, “1.5-diphenyl-3-(N-hydroxycarbamoyloxyalkyl)pyrazoles” (Ortho Pharmaceutical Corporation, priority 1993, dated 1995).

molecular target: T1, RBL-1 Cell 5-Lipoxygenase (Rattus norvegicus, UniProt P12527); experiment: Procedure II: 5-lipoxygenase inhibition in disrupted RBL-1 cells (supernatant as enzyme source); format: biochemical; conditions: not given
T1 construct: the supernatant was saved as the source of enzymes; endogenous in cells; host or cells: RBL-1 (rat basophilic leukemia cells), 10,000×g supernatant of homogenate
T1 sequence (P12527 1-673): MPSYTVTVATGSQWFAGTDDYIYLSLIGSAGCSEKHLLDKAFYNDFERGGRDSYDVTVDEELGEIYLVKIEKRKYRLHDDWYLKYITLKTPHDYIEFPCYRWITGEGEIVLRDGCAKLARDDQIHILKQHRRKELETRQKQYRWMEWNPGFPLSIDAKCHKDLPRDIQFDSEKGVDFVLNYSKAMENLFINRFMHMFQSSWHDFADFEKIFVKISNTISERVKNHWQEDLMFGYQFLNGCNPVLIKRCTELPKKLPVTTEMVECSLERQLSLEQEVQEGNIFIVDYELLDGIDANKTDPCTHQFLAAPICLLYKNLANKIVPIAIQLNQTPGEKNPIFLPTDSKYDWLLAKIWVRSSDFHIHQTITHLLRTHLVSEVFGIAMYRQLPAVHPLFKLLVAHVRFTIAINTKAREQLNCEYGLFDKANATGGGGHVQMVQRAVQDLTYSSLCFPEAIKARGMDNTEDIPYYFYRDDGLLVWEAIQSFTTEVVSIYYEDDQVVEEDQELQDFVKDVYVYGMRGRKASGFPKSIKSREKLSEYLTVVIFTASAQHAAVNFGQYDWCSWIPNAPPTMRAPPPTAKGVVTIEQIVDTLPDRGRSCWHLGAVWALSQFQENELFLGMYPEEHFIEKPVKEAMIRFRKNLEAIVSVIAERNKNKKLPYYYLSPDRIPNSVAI
Method: RBL-1 Cell 5-Lipoxygenase and Cyclooxygenase
Rat basophilic leukemia cells (RBL-1; 5×10^7 viable cells/mL) were disrupted by homogenization on ice (four 20 sec bursts) with a Brinkman polytron. Complete cell breakage was verified microscopically. The homogenate was then centrifuged at 10,000×g for 48 minutes at 4° C. The pellet was discarded and the supernatant was saved as the source of enzymes. The supernatant was pre-incubated for five minutes at 37° C. in the presence of 2 mM of CaCl2 and compound or vehicle (1% DMSO). The conversion of AA into 5-LO products was initiated by adding 10 μL (50 μCi) of 1-^14 C-AA to each tube and incubated at 37° C. for 20 minutes. The reaction was stopped by adjusting the pH of each sample to 3 to 3.5 with 2M formic acid. Samples were extracted with three volumes of chloroform to isolate the products of 5-LO formed during the reaction. Fractions were dried under nitrogen, then resuspended in 40 μL of chloroform and spotted onto silica gel HL plates. The plates were developed in A-9 solvent. The dried plates were analyzed using a Bioscan Imaging TLC scanner to determine the percentage of radiolabelled AA converted to 5-HETE in each sample.
(§1) In the following tables, the superscripts indicate the number of experiments and, unless otherwise stated, the dose at which % inhibition is reported is 3 MPK.

Row | SMILES | % INHIBITION 5-LO (Procedure II)
1 | COc1ccc(-n2nc(CCOC(=O)N(O)C(C)C)c(Cl)c2-c2ccc(Cl)cc2)cc1 [2-D] | 70%
2 | COc1ccc(-n2nc(CCOC(=O)N(O)C(C)C)c(Br)c2-c2ccc(Cl)cc2)cc1 [2-F] | 71%
3 | COc1ccc(-n2nc(CCOC(=O)N(C)O)c(Cl)c2-c2ccc(C)cc2)cc1 [2-I] | 78%
4 | COc1ccc(-n2nc(CCOC(=O)N(O)C(C)C)c(Cl)c2-c2ccc(C)cc2)cc1 [2-J] | 74%
5 | COc1ccc(-n2nc(CCOC(=O)NO)c(Br)c2-c2ccc(C)cc2)cc1 [2-K] | 59%
6 | COc1ccc(-n2nc(CCOC(=O)N(C)O)c(Br)c2-c2ccc(C)cc2)cc1 [2-L] | 75%
7 | COc1ccc(-n2nc(CCCOC(=O)N(C)O)c(Cl)c2-c2ccc(Cl)cc2)cc1 [3-D] | 85%
8 | COc1ccc(-n2nc(CCCOC(=O)N(O)C(C)C)c(Cl)c2-c2ccc(Cl)cc2)cc1 [3-E] | 86%
9 | COc1ccc(-n2nc(CCCOC(=O)N(C)O)c(Br)c2-c2ccc(Cl)cc2)cc1 [3-F] | 88%

More lines, now with the values ahead:

Row | % INHIBITION 5-LO (Procedure II) | SMILES
10 | 82% | COc1ccc(-n2nc(CCOC(=O)N(C)O)cc2-c2ccc(Cl)cc2)cc1 [2-A]
11 | 84% | COc1ccc(-n2nc(CCOC(=O)N(O)C(C)C)cc2-c2ccc(Cl)cc2)cc1 [2-B]
12 | 69% | COc1ccc(-n2nc(CCOC(=O)N(C)O)c(Cl)c2-c2ccc(Cl)cc2)cc1 [2-C]
13 | 72% | COc1ccc(-n2nc(CCOC(=O)N(C)O)c(Br)c2-c2ccc(Cl)cc2)cc1 [2-E]
14 | 82% | COc1ccc(-n2nc(CCOC(=O)N(C)O)cc2-c2ccc(C)cc2)cc1 [2-G]
15 | 83% | COc1ccc(-n2nc(CCOC(=O)N(O)C(C)C)cc2-c2ccc(C)cc2)cc1 [2-H]
16 | 83% | COc1ccc(-n2nc(CCCOC(=O)NO)cc2-c2ccc(Cl)cc2)cc1 [3-A]
17 | 96% | COc1ccc(-n2nc(CCCOC(=O)N(C)O)cc2-c2ccc(Cl)cc2)cc1 [3-B]
18 | 80% | COc1ccc(-n2nc(CCCOC(=O)N(O)C(C)C)cc2-c2ccc(Cl)cc2)cc1 [3-C]

same assay, conditions: read-out: IC50 5-LO (Procedure II)

Row | SMILES | IC50
19 | COc1ccc(-n2nc(CCOC(=O)N(O)C(C)C)c(Cl)c2-c2ccc(Cl)cc2)cc1 [2-D] | 70 nM
20 | COc1ccc(-n2nc(CCOC(=O)N(O)C(C)C)c(Br)c2-c2ccc(Cl)cc2)cc1 [2-F] | 140 nM
21 | COc1ccc(-n2nc(CCOC(=O)N(C)O)c(Cl)c2-c2ccc(C)cc2)cc1 [2-I] | 100 nM
22 | COc1ccc(-n2nc(CCOC(=O)N(O)C(C)C)c(Cl)c2-c2ccc(C)cc2)cc1 [2-J] | 30 nM
23 | COc1ccc(-n2nc(CCOC(=O)NO)c(Br)c2-c2ccc(C)cc2)cc1 [2-K] | 680 nM
24 | COc1ccc(-n2nc(CCOC(=O)N(C)O)c(Br)c2-c2ccc(C)cc2)cc1 [2-L] | 90 nM
25 | COc1ccc(-n2nc(CCCOC(=O)N(C)O)c(Cl)c2-c2ccc(Cl)cc2)cc1 [3-D] | 100 nM
26 | COc1ccc(-n2nc(CCCOC(=O)N(O)C(C)C)c(Cl)c2-c2ccc(Cl)cc2)cc1 [3-E] | 70 nM
27 | COc1ccc(-n2nc(CCCOC(=O)N(C)O)c(Br)c2-c2ccc(Cl)cc2)cc1 [3-F] | 60 nM

The remaining lines, values ahead:

Row | IC50 | SMILES
28 | 60 nM | COc1ccc(-n2nc(CCOC(=O)N(C)O)cc2-c2ccc(Cl)cc2)cc1 [2-A]
29 | 100 nM | COc1ccc(-n2nc(CCOC(=O)N(O)C(C)C)cc2-c2ccc(Cl)cc2)cc1 [2-B]
30 | 470 nM | COc1ccc(-n2nc(CCOC(=O)N(C)O)c(Cl)c2-c2ccc(Cl)cc2)cc1 [2-C]
31 | 190 nM | COc1ccc(-n2nc(CCOC(=O)N(C)O)c(Br)c2-c2ccc(Cl)cc2)cc1 [2-E]
32 | 640 nM | COc1ccc(-n2nc(CCOC(=O)N(C)O)cc2-c2ccc(C)cc2)cc1 [2-G]
33 | 60 nM | COc1ccc(-n2nc(CCOC(=O)N(O)C(C)C)cc2-c2ccc(C)cc2)cc1 [2-H]
34 | 3000 nM | COc1ccc(-n2nc(CCCOC(=O)NO)cc2-c2ccc(Cl)cc2)cc1 [3-A]
35 | 120 nM | COc1ccc(-n2nc(CCCOC(=O)N(C)O)cc2-c2ccc(Cl)cc2)cc1 [3-B]
36 | 30 nM | COc1ccc(-n2nc(CCCOC(=O)N(O)C(C)C)cc2-c2ccc(Cl)cc2)cc1 [3-C]

molecular target: T2, CO in intact RBL-1 cells (Rattus norvegicus, UniProt Q63921); experiment: Procedure III: inhibition of CO in intact RBL-1 cells; format: cell-based; conditions: not given
T2 construct: 5-LO and CO in intact RBL-1 cells; endogenous in cells; host or cells: RBL-1 (rat basophilic leukemia cells), intact
T2 sequence (Q63921 27-602): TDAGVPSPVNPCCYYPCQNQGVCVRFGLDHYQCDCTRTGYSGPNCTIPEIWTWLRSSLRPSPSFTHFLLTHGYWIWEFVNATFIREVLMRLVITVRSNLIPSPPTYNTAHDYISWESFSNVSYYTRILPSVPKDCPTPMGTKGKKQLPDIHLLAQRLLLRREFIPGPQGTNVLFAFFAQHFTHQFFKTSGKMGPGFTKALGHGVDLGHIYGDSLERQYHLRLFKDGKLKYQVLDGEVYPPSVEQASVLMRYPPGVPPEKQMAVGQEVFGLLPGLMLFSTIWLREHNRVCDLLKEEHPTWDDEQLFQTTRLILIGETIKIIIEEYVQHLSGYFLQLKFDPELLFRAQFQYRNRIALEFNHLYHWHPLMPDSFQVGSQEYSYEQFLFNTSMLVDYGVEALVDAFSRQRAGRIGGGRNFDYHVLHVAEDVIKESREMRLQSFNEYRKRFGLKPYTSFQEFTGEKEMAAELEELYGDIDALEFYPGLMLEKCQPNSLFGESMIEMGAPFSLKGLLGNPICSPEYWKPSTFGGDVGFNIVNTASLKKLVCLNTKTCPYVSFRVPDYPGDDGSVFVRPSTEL
Method: The ability to inhibit 5-LO and CO in intact RBL-1 cells was also evaluated. RBL-1 cells were maintained in culture in minimal essential medium (Bio*Whittaker, Walkersville, Md.), containing 12.5% fetal calf serum, 10 mg/mL streptomycin, 10 I.U./mL penicillin G, […] gentamycin and 2 mM L-glutamine (Bio*Whittaker, Walkersville, Md.). Cells were collected by centrifugation, washed once in HBSS, and resuspended at a concentration of 1×10^5 cells/mL. Cells were incubated in the presence of vehicle or drug then centrifuged at 800×g for 10 minutes at 4° C. The supernatant was removed by aspiration and the cells were resuspended in 0.5 mL of HBSS. The reaction was started by the addition of 20 μg/mL of calcium ionophore A-23187 (mixed calcium and magnesium salts, Calbiochem, La Jolla, Calif.) and allowed to proceed for 15 minutes, then stopped by plunging the tubes into a slush ice bath. The conversion of AA to 5-LO products was initiated by the addition of 10 μL (50 uCi) of 1-^14 C-AA. Products were isolated by acidification and extraction, followed by thin layer chromatography analysis as described above. Radioactive areas corresponding to authentic 5-LO and CO products were quantitated by the Bioscan 2000 Imaging System.
as §1

Row | SMILES | IC50
37 | COc1ccc(-n2nc(CCOC(=O)N(O)C(C)C)c(Cl)c2-c2ccc(Cl)cc2)cc1 [2-D] | 1500 nM
38 | COc1ccc(-n2nc(CCOC(=O)N(O)C(C)C)c(Br)c2-c2ccc(Cl)cc2)cc1 [2-F] | 2400 nM
39 | COc1ccc(-n2nc(CCOC(=O)N(C)O)c(Cl)c2-c2ccc(C)cc2)cc1 [2-I] | 630 nM
40 | COc1ccc(-n2nc(CCOC(=O)N(O)C(C)C)c(Cl)c2-c2ccc(C)cc2)cc1 [2-J] | 1100 nM
41 | COc1ccc(-n2nc(CCOC(=O)NO)c(Br)c2-c2ccc(C)cc2)cc1 [2-K] | 3200 nM
42 | COc1ccc(-n2nc(CCOC(=O)N(C)O)c(Br)c2-c2ccc(C)cc2)cc1 [2-L] | 1800 nM
43 | COc1ccc(-n2nc(CCCOC(=O)N(C)O)c(Cl)c2-c2ccc(Cl)cc2)cc1 [3-D] | 2270 nM
44 | COc1ccc(-n2nc(CCCOC(=O)N(O)C(C)C)c(Cl)c2-c2ccc(Cl)cc2)cc1 [3-E] | 12200 nM
45 | COc1ccc(-n2nc(CCCOC(=O)N(C)O)c(Br)c2-c2ccc(Cl)cc2)cc1 [3-F] | 4920 nM

Further lines, results first:

Row | IC50 | SMILES
46 | 800 nM | COc1ccc(-n2nc(CCOC(=O)N(C)O)cc2-c2ccc(Cl)cc2)cc1 [2-A]
47 | 180 nM | COc1ccc(-n2nc(CCOC(=O)N(O)C(C)C)cc2-c2ccc(Cl)cc2)cc1 [2-B]
48 | 2700 nM | COc1ccc(-n2nc(CCOC(=O)N(C)O)c(Cl)c2-c2ccc(Cl)cc2)cc1 [2-C]
49 | 2200 nM | COc1ccc(-n2nc(CCOC(=O)N(C)O)c(Br)c2-c2ccc(Cl)cc2)cc1 [2-E]
50 | 80 nM | COc1ccc(-n2nc(CCOC(=O)N(C)O)cc2-c2ccc(C)cc2)cc1 [2-G]
51 | 40 nM | COc1ccc(-n2nc(CCOC(=O)N(O)C(C)C)cc2-c2ccc(C)cc2)cc1 [2-H]
52 | 4600 nM | COc1ccc(-n2nc(CCCOC(=O)NO)cc2-c2ccc(Cl)cc2)cc1 [3-A]
53 | 420 nM | COc1ccc(-n2nc(CCCOC(=O)N(C)O)cc2-c2ccc(Cl)cc2)cc1 [3-B]
54 | 1230 nM | COc1ccc(-n2nc(CCCOC(=O)N(O)C(C)C)cc2-c2ccc(Cl)cc2)cc1 [3-C]
